Test results published in patent publication US9078868B2, “Therapeutic agent for accelerating recovery of animal under medical treatment” (UNIVERSITY OF MIYAZAKI, priority 2010, dated 2015).
No end group written: not given here. *: point of attachment. Octanoyl = CCCCCCCC(=O)*

Assays:
[1] = system: hospitalized animals (canines and felines) after surgery; assay: Example 1: single dose of ghrelin in hospitalized animals after surgery, parameters before vs after administration; assay type: in vivo; details: for Body temperature: animals improved/animals evaluated / Biochemical tests: animals improved/animals evaluated / Body temperature: response rate / Activity (vigor): animals improved/animals evaluated / Hematology tests: animals improved/animals evaluated: single dose
Procedure: (§1) In these Examples, a canine-derived ghrelin (a peptide compound in which a side chain hydroxyl group of the serine residue at the 3rd position from the amino terminus is acylated with an n-octanoyl group in SEQ ID NO: 1) was used as ghrelin. The canine-derived ghrelin was chemically synthesized and then lyophilized, and a canine-derived ghrelin for administration containing 0.1, 0.3, 0.5, or 1 mg per vial of a canine-derived ghrelin was prepared.
(§2) To administer ghrelin to animals, the canine-derived ghrelin was dissolved to a concentration of 1 mg/2 mL in physiological saline and intravenously, subcutaneously, or intramuscularly injected after the dose was adjusted depending on the body weight.
(§3) Animals hospitalized in veterinary hospitals, particularly canines and felines, were used for treatment. These animals may or may not have undergone a surgery for treatment. The surgeries performed on the animals were pyometra surgery, surgical removal of a reproductive organ, surgical removal of mammary gland tumor, ovary cyst surgery, liver cell tumor surgery, disc hernia surgery, diaphragmatic hernia surgery, fracture surgery, gastrointestinal tract surgery, and urethroplasty.
(§4) Physical conditions in animals with various pathological conditions were examined by measuring parameters including activity (vigor), blood cell test values, biochemical test values, urinalysis, electrolyte tests, body weight, body temperature, the degree of anger or anxiety, respiratory rate, and the like to evaluate the effect of improving physical conditions in the animals. The effect was evaluated by comparing various evaluation parameters before and after administration.
(§5) The evaluation parameters used were activity (vigor), body temperature, hematology parameters (blood cell test values), serum biochemistry parameters (biochemical test values), the degree of anger or anxiety, and respiratory rate. […] The degree of anger or anxiety of an animal observed visually by an observer were also evaluated using the following criteria: 1. calm and accustomed to a health care professional, 2. able to be touched by but unaccustomed to a health care professional and restless, 3. wandering around or hiding in the kennel with anxiety, 4. able to be barely touched, and 5. too violent to be touched by a health care professional and tends to bite.
13.2 to 80 μg/kg of a canine-derived ghrelin (chemically synthesized) was administered by an intravenous injection, a subcutaneous injection, or an intramuscular injection (solution for an injection: physiological saline or the like) to 32 animals (canines and felines) after surgery which were hospitalized in veterinary hospitals. The 32 cases of the animals were as follows.
Pyometra surgery and surgical removal of reproductive organ, 18 animals; mammary gland tumor surgery, three animals (including one animal also having pyometra); disc hernia surgery, two animals; surgery for a fracture or a traffic accident injury, three animals; urethroplasty, three animals; gastrointestinal tract surgery, two animals; and pneumothorax surgery, one animal.
Improvement of physical conditions of these animals was evaluated in terms of activity (vigor), body temperature, hematology parameters (blood cell test values), and serum biochemistry parameters (biochemical test values).

[2] = system: animals under medical treatment with physical conditions worsened by various diseases; assay: Example 2: single dose of ghrelin in animals under medical treatment for pathological conditions other than a surgery; assay type: in vivo, canines and felines; details: for Activity (vigor): animals improved/animals evaluated / Activity (vigor): response rate / Biochemical tests: animals improved/animals evaluated / Biochemical tests: response rate / Hematology tests: animals improved/animals evaluated / Hematology tests: response rate / Body temperature: animals improved/animals evaluated / Body temperature: response rate: single dose
Procedure: as §1, §2, §3, §4, §5
Ten animals had two or more diseases concurrently. The diseases including concurrent diseases were as follows: lower urological syndrome, urinary retention, infectious respiratory syndrome, chronic renal failure, osteoarthritis, chronic hepatitis, cystolithiasis, malnutrition, debility, jaundice, circulatory insufficiency, multiple organ failure, pulmonary edema, anemia, tabefaction, diarrhea, vomiting, wheezing, pyrexia, FIV, FELV infection, CPV infection, FVR, a liver disease, filariasis, hemobartonellosis, babesiosis, habu bite, anaphylaxis, a falling accident, rib fracture, and burn.
Of the animals with these diseases, the evaluation parameters recorded in medical records were as follows: activity (vigor) in 16 animals, biochemistry parameters (biochemical test values) in 11 animals, hematology parameters (blood cell test values) in three animals, and body temperature in one animal.

[3] = gastrointestinal tract surgery, 2 animals
[4] = pyometra surgery and surgical removal of reproductive organ, 18 animals
[5] = surgical removal of mammary gland tumor, 3 animals
[6] = total, 32 animals after surgery
[7] = multiple organ failure, 1 animal
[8] = total, 18 animals with various diseases

## GSS (n-octanoyl) FLSPEHQKLQQRKESKKPPAKLQPR (GSS(Octanoyl)FLSPEHQKLQQRKESKKPPAKLQPR; listed as Canis familiaris) [ghrelin, chemically synthesized, lyophilized]
[1]; disc hernia surgery, 2 animals
  Body temperature: animals improved/animals evaluated: 1/1
[1]; example, animal after surgery, before administration 6.0 mg/dL
  Serum creatinine (Cre) value after administration: 1.1 mg/dL
[1]; example, animal after surgery, before administration 44.2 mg/dL
  Blood urea nitrogen (BUN) value after administration: 29.3 mg/dL
[1]; example, animal after surgery, before administration 405 mg/dL
  Total cholesterol (T-CHO) value after administration: 260 mg/dL
[1]; example, animal after surgery, before administration 180 IU/L
  Glutamic pyruvic transaminase (GPT) value after administration: 85 IU/L
[1]; example, animal after surgery, before administration 345 IU/L
  Alkaline phosphatase (ALP) value after administration: 286 IU/L
[1]; example, animal after surgery, before administration 1429 IU/L
  Creatinine phosphokinase (CPK) value after administration: 955 IU/L
[1]; example, animal after surgery, before administration upper limit of measurement
  C-reactive protein (CRP) value after administration: 7.3 mg/dL
[1]; example, animal after surgery, high count decreased, before administration 44.1×10^3/μL
  White blood cell count after administration: 17700 µL⁻¹
[1]; example, animal after surgery, low count increased, before administration 13.9×10^4/μL
  Platelet count after administration: 585000 µL⁻¹
[1]; example, animal after surgery, low count increased, before administration 214×10^4/μL
  Red blood cell count after administration: 3.04e+06 µL⁻¹
[1]; example, animal after surgery, low level increased
  Hemoglobin level after administration: 7.7 g/dL
[1]; [3]
  Biochemical tests: animals improved/animals evaluated: 1/1
  Body temperature: animals improved/animals evaluated: 1/1
[1]; pneumothorax surgery, 1 animal
  Body temperature: animals improved/animals evaluated: 0/1
  Body temperature: response rate: (0%)
[1]; [4]
  Activity (vigor): animals improved/animals evaluated: 6/7
  Biochemical tests: animals improved/animals evaluated: 3/3
  Body temperature: animals improved/animals evaluated: 3/4
  Hematology tests: animals improved/animals evaluated: 3/4
[1]; surgery for fracture or traffic accident injury, 3 animals
  Activity (vigor): animals improved/animals evaluated: 3/3
[1]; [5]
  Activity (vigor): animals improved/animals evaluated: 2/2
  Biochemical tests: animals improved/animals evaluated: 1/1
  Body temperature: animals improved/animals evaluated: 1/1
  Hematology tests: animals improved/animals evaluated: 1/1
[1]; [6]
  Activity (vigor): animals improved/animals evaluated: 11/12
  Biochemical tests: animals improved/animals evaluated: 5/6
  Body temperature: animals improved/animals evaluated: 5/8
  Hematology tests: animals improved/animals evaluated: 4/6
[1]; urethroplasty, 3 animals
  Activity (vigor): animals improved/animals evaluated: 1/1
  Biochemical tests: animals improved/animals evaluated: 1/2
  Body temperature: animals improved/animals evaluated: 0/1
  Body temperature: response rate: (0%)
  Hematology tests: animals improved/animals evaluated: 1/2
[2]; accident etc., 3 animals
  Activity (vigor): animals improved/animals evaluated: 3/3
  Activity (vigor): response rate: 100%
  Biochemical tests: animals improved/animals evaluated: 1/1
  Biochemical tests: response rate: 100%
[2]; anaphylaxis, 1 animal
  Activity (vigor): animals improved/animals evaluated: 1/1
  Activity (vigor): response rate: 100%
  Biochemical tests: animals improved/animals evaluated: 1/1
  Biochemical tests: response rate: 100%
[2]; animals in the Examples with decreased serum potassium after persistent poor physical conditions
  Serum potassium (K) value after administration: improved
[2]; before administration 18.8 mg/dL
  T-bil after administration: 4.9 mg/dL
[2]; debility, 1 animal
  Activity (vigor): animals improved/animals evaluated: 1/1
  Activity (vigor): response rate: 100%
  Biochemical tests: animals improved/animals evaluated: 1/1
  Biochemical tests: response rate: 100%
[2]; example, before administration 207 μg/dL
  NH3 after administration: 302 µg/dL
[2]; example, before administration 3.2 mg/dL
  Cre after administration: 1.3 mg/dL
[2]; example, before administration 72.5 mg/dL
  BUN after administration: 15.4 mg/dL
[2]; example, before administration 40.2° C.
  Body temperature after administration: 37.8 °C
[2]; example, before administration 278×10^2/μL
  White blood cell count after administration: 16700 µL⁻¹
[2]; example, before administration 643 IU/L
  ALP after administration: 291 IU/L
[2]; example, before administration 670 IU/L
  GPT after administration: 260 IU/L
[2]; example, before administration 1166 IU/L
  CPK after administration: 64 IU/L
[2]; example, before administration >1000 IU/L
  GOT after administration: 187 IU/L
[2]; example, before administration a score of 1 (unable to move), scale 1-7
  Activity (vigor) score after administration: 3
[2]; infection, 8 animals
  Activity (vigor): animals improved/animals evaluated: 6/6
  Activity (vigor): response rate: 100%
  Biochemical tests: animals improved/animals evaluated: 6/6
  Biochemical tests: response rate: 100%
  Hematology tests: animals improved/animals evaluated: 1/1
  Hematology tests: response rate: 100%
[2]; liver disease, 1 animal
  Activity (vigor): animals improved/animals evaluated: 1/1
  Activity (vigor): response rate: 100%
  Body temperature: animals improved/animals evaluated: 1/1
  Body temperature: response rate: 100%
[2]; [7]
  Activity (vigor): animals improved/animals evaluated: 1/1
  Activity (vigor): response rate: 100%
[2]; renal dysfunction, 3 animals
  Activity (vigor): animals improved/animals evaluated: 3/3
  Activity (vigor): response rate: 100%
  Biochemical tests: animals improved/animals evaluated: 1/1
  Biochemical tests: response rate: 100%
  Hematology tests: animals improved/animals evaluated: 2/2
  Hematology tests: response rate: 100%
[2]; [8]
  Activity (vigor): animals improved/animals evaluated: 16/16
  Activity (vigor): response rate: 100%
  Biochemical tests: animals improved/animals evaluated: 11/11
  Biochemical tests: response rate: 100%
  Body temperature: animals improved/animals evaluated: 1/1
  Body temperature: response rate: 100%
  Hematology tests: animals improved/animals evaluated: 3/3
  Hematology tests: response rate: 100%
